Read-outs that look alike come from different tables or passages of the source. Starred links: 1 amine or outer side, 2 acyl side, 3 side chain; linkers in the order of their positions; H or OH if unused. Non-standard residues stand in square brackets, D forms with d. Residues, ends and D or L forms follow the SMILES beside them. *: point of attachment. X1 = O=C(CCCC[C@@H]1SC[C@@H]2NC(=O)N[C@@H]21)NCCCOCCOCCOCCCN*; pT = C[C@@H](OP(=O)(O)O)[C@H](N)C(=O)O; Suc = O=C(CCC(=O)[*:2])[*:1]

For orientation: Kd means the concentration at which binding is half-saturated.

The target of one assay is T1, 14-3-3η (Homo sapiens, UniProt Q04917).
T1 construct: cDNAs encoding other full-length 14-3-3 isoforms β, τ, η, and σ were obtained as codon-optimized; made in house; host or cells: E. coli BL21(DE3)
T1 sequence (Q04917 1-246): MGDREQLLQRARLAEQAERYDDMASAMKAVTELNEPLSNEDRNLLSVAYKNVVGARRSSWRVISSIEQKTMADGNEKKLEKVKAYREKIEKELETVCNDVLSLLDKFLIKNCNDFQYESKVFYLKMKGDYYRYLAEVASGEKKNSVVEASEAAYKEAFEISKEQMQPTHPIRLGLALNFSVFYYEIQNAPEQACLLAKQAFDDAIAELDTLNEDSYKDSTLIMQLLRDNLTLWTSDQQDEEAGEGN
The assay can be described thus: biochemical. In kind it is binding. The method, then:
(§1) The seven full-length human 14-3-3 isoforms, produced as fusions to a maltose-binding protein (MBP), were analyzed for their interaction with four phospho-PBMs from E6 proteins of HPV types 16, 18, 33, and 35 belonging to subgroups 1 and 2 (as defined in Supplementary Fig. 1). For comparison, we also measured two non-viral phospho-PBMs originating from protein kinase RSK1[28]. We used a competitive fluorescence polarization (FP) assay that measures the displacement of a fluorescent tracer phosphopeptide (here, derived from the HSPB6 protein) bound beforehand to 14-3-3, by an increasing amount of the peptide of interest.
(§2) For affinity measurements, full-length human 14-3-3 constructs with an N-terminal MBP fusion were used. Plasmids containing the cDNAs of the full-length 14-3-3 isoforms ε, γ, and ζ were received from Prof. Lawrence Banks. cDNAs encoding other full-length 14-3-3 isoforms β, τ, η, and σ were obtained as codon-optimized for E. coli expression synthetic genes from IDT Technologies (Coralville, Iowa, USA). All 14-3-3 isoforms were fused via a three-alanine linker to the C terminus of a mutant MBP carrying the following amino acid substitutions facilitating crystallization: D83A, K84A, K240A, E360A, K363A, and D364A[62]. All resulting clones were verified by sequencing. The MBP-fused proteins were expressed in E. coli BL21(DE3) with IPTG induction. Proteins were affinity purified on an amylose column and were further purified by ion-exchange chromatography (HiTrap Q HP, GE Healthcare). Unfused 14-3-3 isoforms devoid of the flexible C-terminal tails (14-3-3βΔC, 14-3-3τΔC 14-3-3εΔC) were expressed using IPTG induction and purified by subtractive IMAC and SEC[40]. Protein concentrations were determined by UV spectroscopy. The samples were supplemented with glycerol and TCEP before aliquoting and freezing in liquid nitrogen.
(§3) Unless otherwise stated, all phosphopeptide-binding measurements were performed using full-length 14-3-3 proteins fused to the C terminus of MBP, favoring optimal solubility and a standardized parallel purification scheme.
(§4) FP was measured with a PHERAstar (BMG Labtech, Offenburg, Germany) microplate reader by using 485 ± 20 and 528 ± 20 nm band-pass filters (for excitation and emission, respectively). In direct FP measurements, a dilution series of the 14-3-3 protein was prepared in 96-well plates (96-well skirted PCR plate, 4ti-0740, 4titude, Wotton, UK) in a 20 mM HEPES pH 7.5 buffer containing 150 mM NaCl, 0.5 mM TCEP, 0.01% Tween 20, 50 nM fluorescently labeled fpB6 peptide, and 100 μM FSC, if indicated. The volume of the dilution series was 40 μl, which was later divided into three technical replicates of 10 μl upon transferring to 384-well micro-plates (low binding microplate, 384 well, E18063G5, Greiner Bio-One, Kremsmünster, Austria). In total, polarization of the probe was measured at eight different protein concentrations (whereas one contained no protein and corresponded to the free peptide). In competitive FP measurements, the same buffer was supplemented with the protein to achieve a complex formation of 60–80%, based on the direct titration. Then, this mixture was used for creating a dilution series of the unlabeled competitor (i.e., the studied peptides) and the measurement was carried out identically as in the direct experiment.
(§5) All FP experiments were done in triplicates. Analysis of FP experiments were carried out using ProFit, an in-house developed, Python-based fitting program. ProFit utilizes a Monte Carlo approach to take into account experimental variability. It generates hundreds of simulated datasets, based on the experimental data variance and fits direct and competitive measurements in pairs.

A further assay concerns the target T2, 14-3-3γ (Homo sapiens, UniProt P61981).
T2 construct: full-length human 14-3-3 constructs with an N-terminal MBP fusion were used; made in house; host or cells: E. coli BL21(DE3)
T2 sequence (P61981 1-247): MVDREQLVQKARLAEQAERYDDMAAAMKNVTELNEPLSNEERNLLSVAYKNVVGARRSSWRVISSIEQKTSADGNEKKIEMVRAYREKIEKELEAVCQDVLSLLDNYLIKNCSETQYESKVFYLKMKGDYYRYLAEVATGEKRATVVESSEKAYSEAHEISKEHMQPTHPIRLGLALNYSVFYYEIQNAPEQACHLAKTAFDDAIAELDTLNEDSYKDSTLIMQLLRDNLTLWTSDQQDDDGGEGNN
The assay can be described thus: biochemical. In kind it is binding. The method, then:
as §1, §2, §3, §4, §5

A further assay addresses T3, 14-3-3ε (Homo sapiens, UniProt P62258).
T3 construct: Plasmids containing the cDNAs of the full-length 14-3-3 isoforms ε, γ, and ζ were received; made in house; host or cells: E. coli BL21(DE3)
T3 sequence (P62258 1-255): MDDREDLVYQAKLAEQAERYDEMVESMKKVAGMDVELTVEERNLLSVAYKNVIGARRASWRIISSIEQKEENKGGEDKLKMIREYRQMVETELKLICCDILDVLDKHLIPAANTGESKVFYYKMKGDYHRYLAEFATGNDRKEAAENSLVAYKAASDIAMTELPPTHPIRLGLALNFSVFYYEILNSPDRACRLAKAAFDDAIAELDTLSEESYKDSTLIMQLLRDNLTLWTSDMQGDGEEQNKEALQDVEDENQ
The assay can be described thus: biochemical. In kind it is binding. As to the method:
as §1, §2, §3, §4, §5

A further assay has as its target T4, 14-3-3σ (Homo sapiens, UniProt P31947).
T4 construct: cDNAs encoding other full-length 14-3-3 isoforms β, τ, η, and σ were obtained as codon-optimized; made in house; host or cells: E. coli BL21(DE3)
T4 sequence (P31947 1-248): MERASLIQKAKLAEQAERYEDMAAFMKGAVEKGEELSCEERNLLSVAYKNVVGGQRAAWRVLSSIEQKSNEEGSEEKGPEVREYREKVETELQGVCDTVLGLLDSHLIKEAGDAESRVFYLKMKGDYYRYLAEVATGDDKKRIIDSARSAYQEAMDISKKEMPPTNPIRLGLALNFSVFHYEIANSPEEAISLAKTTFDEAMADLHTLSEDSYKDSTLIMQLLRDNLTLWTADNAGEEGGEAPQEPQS
Nature of the assay: biochemical. In kind it is binding. As to the method: as §1, §2, §3, §4, §5

The target in the next assay is T5, 14-3-3ζ (Homo sapiens, UniProt P63104).
T5 construct: Plasmids containing the cDNAs of the full-length 14-3-3 isoforms ε, γ, and ζ were received; made in house; host or cells: E. coli BL21(DE3)
T5 sequence (P63104 1-245): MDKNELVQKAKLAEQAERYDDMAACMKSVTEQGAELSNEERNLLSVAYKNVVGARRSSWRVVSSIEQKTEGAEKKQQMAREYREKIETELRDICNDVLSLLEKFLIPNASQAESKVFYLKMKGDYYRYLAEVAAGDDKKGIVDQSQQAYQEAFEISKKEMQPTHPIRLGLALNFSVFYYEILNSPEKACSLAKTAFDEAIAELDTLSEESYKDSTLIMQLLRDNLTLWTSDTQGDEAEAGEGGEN
The assay can be described thus: biochemical. In kind it is binding. As to the method: as §1, §2, §3, §4, §5

The target of another assay is T6, 14-3-3τ (Homo sapiens, UniProt P27348).
T6 construct: cDNAs encoding other full-length 14-3-3 isoforms β, τ, η, and σ were obtained as codon-optimized; made in house; host or cells: E. coli BL21(DE3)
T6 sequence (P27348 1-245): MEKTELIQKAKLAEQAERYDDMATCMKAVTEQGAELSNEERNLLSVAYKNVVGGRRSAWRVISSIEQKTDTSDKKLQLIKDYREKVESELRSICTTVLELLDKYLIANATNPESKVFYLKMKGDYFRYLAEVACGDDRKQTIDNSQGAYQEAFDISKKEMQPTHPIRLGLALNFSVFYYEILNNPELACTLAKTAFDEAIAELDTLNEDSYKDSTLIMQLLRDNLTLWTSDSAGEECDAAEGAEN
The assay can be described thus: biochemical. In kind it is binding. The method, then: as §1, §2, §3, §4, §5

Another assay addresses T7, 14-3-3β (Homo sapiens, UniProt P31946).
T7 construct: cDNAs encoding other full-length 14-3-3 isoforms β, τ, η, and σ were obtained as codon-optimized; made in house; host or cells: E. coli BL21(DE3)
T7 sequence (P31946 1-246): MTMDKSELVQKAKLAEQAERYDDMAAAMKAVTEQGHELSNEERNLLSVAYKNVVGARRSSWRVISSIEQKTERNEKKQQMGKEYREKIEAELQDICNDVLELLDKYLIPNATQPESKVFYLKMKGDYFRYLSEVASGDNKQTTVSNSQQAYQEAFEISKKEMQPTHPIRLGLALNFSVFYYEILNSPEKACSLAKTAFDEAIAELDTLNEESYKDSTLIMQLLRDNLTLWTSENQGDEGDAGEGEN
The assay can be described thus: biochemical. The format is binding. As to the method:
as §1, §2, §3, §4, §5

The next assay has as its target 14-3-3 isoforms. The settings on record: Figure 4 panel a, literature-curated motifs, unit from the colour scale line, cited from earlier work.

With `CC(C)[C@H](NC(=O)[C@H](C)NC(=O)[C@@H](NC(=O)[C@H](CCC(=O)O)NC(=O)[C@H](CCCNC(=N)N)NC(=O)[C@H](CCCNC(=N)N)NC(=O)[C@H](CCCNC(=N)N)NC(=O)[C@@H]1CCCN1C(=O)[C@H](CCCCN)NC(=O)[C@H](CO)NC(=O)CCC(=O)NCCCOCCOCCOCCCNC(=O)CCCC[C@@H]1SC[C@@H]2NC(=O)N[C@@H]21)[C@@H](C)OP(=O)(O)O)C(=O)O` [pHPV35E6T-6R, E-1A] ({X1-Suc}-SKPRRRE[pT]AV-OH), the equilibrium dissociation constant (Kd) on 14-3-3η is 4.8 ± 0.5 µM; on 14-3-3γ, 3.3 ± 0.2 µM; at 14-3-3ε, 13 ± 2 µM; on 14-3-3σ, 18.9 ± 1.9 µM; on 14-3-3ζ it was 7.3 ± 0.4 µM; at 14-3-3τ it was 5.8 ± 0.4 µM. Moreover, the Kd on 14-3-3β was 7.1 ± 0.5 µM.
On to “C-Raf254-264 (RQRSTSTPNVH; UniProt P04049 254-264, looked up, fragment)”, for which the Kd was 9.5 µM at 14-3-3 isoforms (14-3-3β, read-out: Binding affinities (KD) of various 14-3-3-binding motifs, 14-3-3β); 3.7 µM at 14-3-3 isoforms (14-3-3γ, read-out: Binding affinities (KD) of various 14-3-3-binding motifs, 14-3-3γ); 15.1 µM at 14-3-3 isoforms (14-3-3ε, read-out: Binding affinities (KD) of various 14-3-3-binding motifs, 14-3-3ε); 16.6 µM at 14-3-3 isoforms (14-3-3ζ, read-out: Binding affinities (KD) of various 14-3-3-binding motifs, 14-3-3ζ); 6.3 µM at 14-3-3 isoforms (14-3-3η, read-out: Binding affinities (KD) of various 14-3-3-binding motifs, 14-3-3η); 67.1 µM at 14-3-3 isoforms (14-3-3σ, read-out: Binding affinities (KD) of various 14-3-3-binding motifs, 14-3-3σ). Moreover, the dissociation constant Kd at 14-3-3 isoforms (14-3-3τ, read-out: Binding affinities (KD) of various 14-3-3-binding motifs, 14-3-3τ) was 26.6 µM.

Source of the values: publication PMC7961048, “Hierarchized phosphotarget binding by the seven human 14-3-3 isoforms” (Nature Communications, 2021).
